Experimental data from paper PMC10272112 (Nature Communications, 2023).
“And” between values parts separate entries of the source, which are not always exact repeats. Equal entries are not always repeated. One block for each compound: values may come before it.

Key:
TwinStrep-GST-HDAC10 = target: T1, TwinStrep-GST-HDAC10 (Homo sapiens, UniProt Q969S8); assay: HDAC10 TR-FRET assay; type: binding; conditions: sheet S2e
T1 sequence (Q969S8 1-669): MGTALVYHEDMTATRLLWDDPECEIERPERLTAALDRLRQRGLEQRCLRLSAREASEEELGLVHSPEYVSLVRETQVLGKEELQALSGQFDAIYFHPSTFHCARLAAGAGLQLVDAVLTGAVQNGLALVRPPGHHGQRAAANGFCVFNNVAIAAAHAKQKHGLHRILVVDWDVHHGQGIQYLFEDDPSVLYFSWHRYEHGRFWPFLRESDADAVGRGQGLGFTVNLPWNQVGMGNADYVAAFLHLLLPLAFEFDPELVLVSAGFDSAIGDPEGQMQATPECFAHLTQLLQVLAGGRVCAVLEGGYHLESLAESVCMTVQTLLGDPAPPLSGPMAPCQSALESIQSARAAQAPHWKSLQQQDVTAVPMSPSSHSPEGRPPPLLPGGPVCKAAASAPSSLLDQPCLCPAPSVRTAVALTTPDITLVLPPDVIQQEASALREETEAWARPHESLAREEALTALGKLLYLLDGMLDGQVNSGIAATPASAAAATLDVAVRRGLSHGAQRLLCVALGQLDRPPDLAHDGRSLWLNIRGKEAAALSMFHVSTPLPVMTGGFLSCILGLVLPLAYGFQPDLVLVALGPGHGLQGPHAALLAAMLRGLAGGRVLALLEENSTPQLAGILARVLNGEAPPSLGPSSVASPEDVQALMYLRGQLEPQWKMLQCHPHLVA
Description: (§1) To validate the inhibition of HDACs by LA and LM and elaborate on the structure-activity relationship (SAR) of enantiomers as well as oxidized versus reduced forms of the molecules, we performed enzyme activity assays for recombinant HDAC1,2,3,6,8 as well as FRET-based binding assay for recombinant HDAC10.
Inhibitors with a D300e Digital Dispenser (Tecan). After drug dosing to the premixed assay reagents in buffer, plates were shaken (800 rpm orbital shaker, 30 s), centrifuged (300g, 1 min), and incubated at RT in the dark for 90 min. TR-FRET was measured with a CLARIOstar (BMG Labtech) plate reader, equipped with TR-FRET filters.

A549 cells = assay: Arsenite-induced stress granule formation (G3BP1 immunofluorescence); type: cell-based; conditions: for arsenite-induced stress granule quantification (G3BP1), Mean / arsenite-induced stress granule quantification (G3BP1), Median / arsenite-induced stress granule quantification (G3BP1), individual values: sheet 4b; for arsenite-induced stress granule quantification (G3BP1), individual values: single data points
Description: The acetylation status of proteins can affect their macromolecular associations and the tendency of proteins to phase-separate into liquid condensates such as stress granules. […] After pre-incubation of cells with the compound, stress granule formation was induced using 30 min of arsenite treatment (1 mM). After treatment, cells were fixed for immunofluorescence detection of stress granules via the common stress granule marker protein G3BP1[21].
0.03 × 10^6 A549 cells were seeded at 4-chamber slides (Thermo, Nunc) and cultured at 37 °C overnight. Cells were treated with HDAC inhibitor SAHA and Lipoic acid or LM for 6 h, followed by 1 mM Arsenite for 30 min. Cells were fixed by 4% PFA and permeabilized by 0.5% Triton X-100/PBS. 10% Goat serum in PBS was used for blocking. After manually selecting an area with cell confluency of 50–80%, 16 pictures were taken randomly around the central point (ZEISS software in-built function). Stress granule marker G3BP1 (Aviva Systems Biology, ARP37713_T100) was visualized and quantified by ImageJ. Statistical analysis was performed with GraphPad Prism.

HDAC1 = HDAC1 (Homo sapiens, UniProt Q13547); assay: HDAC-Glo assay; type: biochemical; set-up: purchased BPS Bioscience 50051; conditions: for raw luminescence signal, HDAC1 inhibition: 0.5 M TCEP, listed as SAHA; for HDAC1 relative activity: sheet S2d
Description: as §1
(§2) The experiments were performed according to ref. [48]. […] Drug dosing was performed with a D300e Digital Dispenser (Tecan). HDACs (7 ng/mL for HDAC1, 25 ng/mL for HDAC2, 200 ng/mL for HDAC3/Ncor2 complex, 100 ng/mL for HDAC6, 200 ng/mL for HDAC8) and inhibitors were incubated together at room temperature (RT) for 30 min. After the addition of the HDAC-Glo™ I/II reagent, plates were shaken (800 rpm orbital shaker, 30 s), centrifuged (300 g, 1 min), and incubated at RT for 30 min. Luminescence was detected with a CLARIOstar (BMG Labtech) plate reader.

HDAC6 = target: T2, HDAC6 (Homo sapiens, UniProt Q9UBN7); assay: HDAC-Glo assay; type: biochemical; set-up: purchased BPS Bioscience 50006; conditions: sheet S2d
T2 sequence (Q9UBN7 1-1215): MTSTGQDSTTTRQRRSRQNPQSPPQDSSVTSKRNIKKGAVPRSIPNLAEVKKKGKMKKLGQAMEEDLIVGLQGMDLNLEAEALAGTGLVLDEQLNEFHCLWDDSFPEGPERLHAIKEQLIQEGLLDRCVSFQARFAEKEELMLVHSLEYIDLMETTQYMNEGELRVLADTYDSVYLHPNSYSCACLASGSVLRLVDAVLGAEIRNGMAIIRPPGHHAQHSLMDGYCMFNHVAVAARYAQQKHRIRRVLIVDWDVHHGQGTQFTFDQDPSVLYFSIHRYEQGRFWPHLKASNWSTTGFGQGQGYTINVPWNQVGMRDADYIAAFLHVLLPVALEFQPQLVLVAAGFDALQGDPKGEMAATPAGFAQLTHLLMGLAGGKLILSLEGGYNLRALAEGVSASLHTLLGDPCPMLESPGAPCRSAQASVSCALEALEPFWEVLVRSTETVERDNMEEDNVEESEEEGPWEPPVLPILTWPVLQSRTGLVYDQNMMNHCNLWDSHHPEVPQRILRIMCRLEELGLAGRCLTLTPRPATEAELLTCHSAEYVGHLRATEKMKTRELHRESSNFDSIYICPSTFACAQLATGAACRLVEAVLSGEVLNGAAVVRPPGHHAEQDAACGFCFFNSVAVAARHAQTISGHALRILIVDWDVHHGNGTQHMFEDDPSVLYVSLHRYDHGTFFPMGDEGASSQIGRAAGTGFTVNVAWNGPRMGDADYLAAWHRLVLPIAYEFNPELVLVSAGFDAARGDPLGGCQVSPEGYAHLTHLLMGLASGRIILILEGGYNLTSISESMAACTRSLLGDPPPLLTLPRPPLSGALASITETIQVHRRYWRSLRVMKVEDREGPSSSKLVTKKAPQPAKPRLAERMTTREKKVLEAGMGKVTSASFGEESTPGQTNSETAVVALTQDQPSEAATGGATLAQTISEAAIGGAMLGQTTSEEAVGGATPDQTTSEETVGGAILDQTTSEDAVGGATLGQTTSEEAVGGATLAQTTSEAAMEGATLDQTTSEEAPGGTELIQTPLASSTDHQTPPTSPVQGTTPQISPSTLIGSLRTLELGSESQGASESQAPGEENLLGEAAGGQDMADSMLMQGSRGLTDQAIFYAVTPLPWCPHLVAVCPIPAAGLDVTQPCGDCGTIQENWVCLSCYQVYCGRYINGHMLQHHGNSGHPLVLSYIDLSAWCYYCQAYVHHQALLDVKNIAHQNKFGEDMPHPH
Description: as §1, §2

HDAC8 = target: T3, HDAC8 (Homo sapiens, UniProt Q9BY41); assay: HDAC-Glo assay; type: biochemical; set-up: purchased BPS Bioscience 50008; conditions: sheet S2d
T3 sequence (Q9BY41 1-377): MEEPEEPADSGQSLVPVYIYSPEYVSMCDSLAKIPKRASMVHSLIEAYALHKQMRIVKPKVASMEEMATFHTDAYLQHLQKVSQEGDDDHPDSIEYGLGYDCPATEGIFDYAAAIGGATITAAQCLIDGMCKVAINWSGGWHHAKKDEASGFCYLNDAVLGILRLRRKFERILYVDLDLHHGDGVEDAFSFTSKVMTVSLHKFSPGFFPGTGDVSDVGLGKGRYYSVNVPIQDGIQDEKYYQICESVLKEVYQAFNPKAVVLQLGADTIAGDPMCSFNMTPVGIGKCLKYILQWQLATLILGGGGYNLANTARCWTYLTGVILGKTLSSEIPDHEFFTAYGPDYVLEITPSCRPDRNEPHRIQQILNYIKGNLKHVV
Description: as §1, §2

Chain of HDAC1 (Q13547 whole entry): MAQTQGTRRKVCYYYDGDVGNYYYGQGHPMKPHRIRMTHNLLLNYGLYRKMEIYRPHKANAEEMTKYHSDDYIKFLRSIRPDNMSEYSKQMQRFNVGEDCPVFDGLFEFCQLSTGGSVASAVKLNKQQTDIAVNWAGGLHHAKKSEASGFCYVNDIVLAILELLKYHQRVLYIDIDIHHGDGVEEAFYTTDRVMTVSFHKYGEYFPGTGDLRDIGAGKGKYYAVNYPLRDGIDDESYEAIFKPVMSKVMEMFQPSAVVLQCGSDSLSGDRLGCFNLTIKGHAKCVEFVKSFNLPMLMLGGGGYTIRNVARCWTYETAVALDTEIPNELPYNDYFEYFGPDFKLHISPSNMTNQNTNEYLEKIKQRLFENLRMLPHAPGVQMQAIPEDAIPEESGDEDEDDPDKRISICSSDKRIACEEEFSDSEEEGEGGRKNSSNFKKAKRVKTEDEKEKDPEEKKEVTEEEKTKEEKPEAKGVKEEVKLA

- HDAC10 TR-FRET relative signal (TwinStrep-GST-HDAC10; log conc -4): 8.95 and 4.904 and 5.819
- HDAC10 TR-FRET relative signal (TwinStrep-GST-HDAC10; log conc -6.32148): 8.47 and 4.461 and 8.704
- HDAC10 TR-FRET relative signal (TwinStrep-GST-HDAC10; log conc -7.57349): 45.0477 and 41.2172 and 50.7784
- HDAC10 TR-FRET relative signal (TwinStrep-GST-HDAC10; log conc -8.06198): 82.499 and 87.6271 and 84.2057
SMILES: NC(=O)CCCCC1CCSS1 (stereo not shown) [R/S Lipoic Amide]

SMILES: O=C(CCCCCCC(=O)Nc1ccccc1)NO [Vorinostat]
- arsenite-induced stress granule quantification (G3BP1), Mean (A549 cells; SAHA 5 uM): 45.6514
- arsenite-induced stress granule quantification (G3BP1), Median (A549 cells; SAHA 5 uM): 49.1176
- arsenite-induced stress granule quantification (G3BP1), individual values (A549 cells; SAHA 5 uM): 49.2857 and 50.3 and 41.875 and 50.4286 and 49.1176 and 51.2222 and 60.7 and 38.0833 and 56.9 and 30 and 49.3333 and 45.8824 and 50.6667 and 31.4 and 46 and 38.6364 and 52.8182 and 41.7273 and 33
- arsenite-induced stress granule quantification (G3BP1), Mean (A549 cells; SAHA 10 uM): 35.2798
- arsenite-induced stress granule quantification (G3BP1), Median (A549 cells; SAHA 10 uM): 36
- arsenite-induced stress granule quantification (G3BP1), individual values (A549 cells; SAHA 10 uM): 44.5 and 23.5 and 22.5 and 18.5 and 15.6364 and 31 and 37.5882 and 55.1667 and 42.2 and 33.2 and 29.6923 and 41.5 and 52.75 and 25.3333 and 40.5 and 51.1667 and 36 and 30.8333 and 38.75
- effect on stress granule numbers per cell (A549 cells; pre-incubation 6 h, then 1 mM arsenite 30 min): dose-dependent reduction of stress granule numbers per cell
- raw luminescence signal, HDAC1 inhibition (HDAC1; log10 M -4.30103, 3 technical replicates): 1951 and 1963 and 1822
- raw luminescence signal, HDAC1 inhibition (HDAC1; log10 M -5.12407, 3 technical replicates): 3958 and 4231 and 3895
- raw luminescence signal, HDAC1 inhibition (HDAC1; log10 M -5.94692, 3 technical replicates): 19908 and 20969 and 19762
- raw luminescence signal, HDAC1 inhibition (HDAC1; log10 M -6.76955, 3 technical replicates): 88503 and 91916 and 93868
- raw luminescence signal, HDAC1 inhibition (HDAC1; log10 M -7.59346, 3 technical replicates): 248915 and 245579 and 256063
- raw luminescence signal, HDAC1 inhibition (HDAC1; log10 M -8.41567, 3 technical replicates): 337631 and 344047 and 344507
- raw luminescence signal, HDAC1 inhibition (HDAC1; log10 M -9.27327, 3 technical replicates): 375556 and 372678 and 377396
- raw luminescence signal, HDAC1 inhibition (HDAC1; log10 M -10.062, 3 technical replicates): 346292 and 360694 and 357566

- HDAC6 relative activity (HDAC6; log conc -3.30103): 1.901 and 1.871 and 1.9083
- HDAC6 relative activity (HDAC6; log conc -3.82945): 3.442 and 3.206 and 3.406
- HDAC6 relative activity (HDAC6; log conc -4.35788): 6.925 and 6.75 and 6.858
- HDAC6 relative activity (HDAC6; log conc -4.88629): 16.7633 and 15.9117 and 16.5726
- HDAC6 relative activity (HDAC6; log conc -5.41477): 38.1371 and 36.4753 and 35.86
- HDAC6 relative activity (HDAC6; log conc -5.94309): 60.9287 and 58.1296 and 64.9441
- HDAC6 relative activity (HDAC6; log conc -6.47756): 84.471 and 78.2193 and 82.7984
- HDAC6 relative activity (HDAC6; log conc -6.87615): 87.6459 and 83.3784 and 85.1621
- HDAC8 relative activity (HDAC8; log conc -3.30103): 5.5387 and 6.443 and 4.956
- HDAC8 relative activity (HDAC8; log conc -3.82945): 15.2478 and 14.986 and 14.6707
- HDAC8 relative activity (HDAC8; log conc -4.35788): 32.9883 and 33.8093 and 29.5437
- HDAC8 relative activity (HDAC8; log conc -4.88629): 65.7743 and 68.9393 and 55.1609
- HDAC8 relative activity (HDAC8; log conc -5.41477): 94.4673 and 96.4781 and 81.2779
- HDAC8 relative activity (HDAC8; log conc -5.94309): 99.9702 and 99.768 and 95.3061
- HDAC8 relative activity (HDAC8; log conc -6.47756): 102.1 and 101.594 and 89.0594
- HDAC8 relative activity (HDAC8; log conc -6.87615): 104.349 and 101.731 and 91.7247
- HDAC1 relative activity (HDAC1; log conc -3.30103): 2.768 and 2.872 and 2.683
- HDAC1 relative activity (HDAC1; log conc -3.82945): 9.265 and 8.951 and 9.199
- HDAC1 relative activity (HDAC1; log conc -4.35788): 26.7114 and 25.7521 and 27.3764
- HDAC1 relative activity (HDAC1; log conc -4.88629): 53.7175 and 53.6506 and 52.4863
- HDAC1 relative activity (HDAC1; log conc -5.41477): 84.4773 and 84.2156 and 82.4618
- HDAC1 relative activity (HDAC1; log conc -5.94309): 94.7528 and 92.6024 and 91.8471
- HDAC1 relative activity (HDAC1; log conc -6.47756): 99.9185 and 101.441 and 101.474
- HDAC1 relative activity (HDAC1; log conc -6.87615): 103.379 and 101.234 and 95.7354
SMILES: O=C(O)CCCCC(S)CCS (stereo not shown) [LAred]
